The subject of assay [1] is TBE cells (ras-transformed human bronchial epithelial cells). Description: Selective cytotoxicity, ras-transformed cells (cell count). It is filed as cell-based.
Assay [2] deals with NHBE cells (Normal human bronchial epithelial cells). Description: Selective cytotoxicity, normal cells (cell count). It is filed as cell-based.
Assay [3] relates to ras-transformed human bronchial epithelial cells (TBE) tumor. Description: In vivo antitumor activity, TBE cells implanted in athymic mice. The following applies: 25 mg/kg i.p., 4.0 × 10^6 cells/mouse; for Number of Animals with Tumor: five mice. The arrangement: species or system athymic mice (human tumor cells). How it is done: The experiments were carried out at Purdue University athymic mouse laboratory. Athymic mice were purchased from and maintained at the athymic mouse laboratory under […]. Tumor cells (TBE) were obtained from normal human bronchial epithelial cells transfected with plasmic H1 carrying v-Harvey-ras (H-ras) oncogene via protoplast fusion (G. H. Yoakum, J. F. Lechner, E. W. Gabrielson, B. E. Korba, L. Malan-Shibley, J. C. Willey, M. G. Valerio, A. M. Shamsuddin, B. F. Trump and C. C. Harris, Science 227, 1174, 1985. T. C. K. Chan, C.-j. Chang, N. M. Koonchanok and R.L. Geahlen, Biochem. Biophys. Res. Commun., 193, 1152, 1993. The TBE cells were implanted subcutaneously on day 0 of the experiment. Each test group consists of five mice. The compounds tested were dissolved in a saline solution or a saline solution containing 5% of dimethylsulfoxide and 10% cremphor EL (Sigma Chemical Company, St. Louis, Mo.), and were administered intraperitoneously starting on day 2. The solution was administered every four days for a total of four treatments. Tumor volumes were measured every week. The antitumor activity was measured as % of growth inhibition, which is defined by the percentage of the median tumor volume reduction per week of the treated mice divided by the median tumor volume per week of the controlled mice (Tables 9 and 10).

For assay [4], the system named is KM20L2 colon cancer cells. Description: NCI human tumor cell line panel growth inhibition. It is filed as cell-based.
The subject of another assay is UACC-257 melanoma cells. The assay can be described thus: NCI human tumor cell line panel growth inhibition. It is filed as cell-based.
The subject of assay [5] is OVCAR-5 ovarian cancer cells. Description: NCI human tumor cell line panel growth inhibition. It is filed as cell-based.
A further assay concerns SNB-19 CNS cancer cells. Description: NCI human tumor cell line panel growth inhibition. It is filed as cell-based. The following applies: Homo sapiens, read-out: Log10 GI50 (converted).
Assay [6] deals with NCI-H322M lung cancer cells. The assay can be described thus: NCI human tumor cell line panel growth inhibition. It is filed as cell-based. To be noted: Homo sapiens, read-out: Log10 GI50 (converted).
For another assay, the system named is UACC-62 melanoma cells. Description: NCI human tumor cell line panel growth inhibition. It is filed as cell-based.
Another assay relates to A-498 renal cancer cells. Description: NCI human tumor cell line panel growth inhibition. It is filed as cell-based.
Assay [7] deals with NCI-H226 lung cancer cells. The assay can be described thus: NCI human tumor cell line panel growth inhibition. It is filed as cell-based.
Assay [8] relates to HCT-116 colon cancer cells. Description: NCI human tumor cell line panel growth inhibition. It is filed as cell-based.
In the next assay the test system is DLD-1 colon cancer cells. The assay can be described thus: NCI human tumor cell line panel growth inhibition. It is filed as cell-based. To be noted: Homo sapiens, read-out: Log10 GI50 (converted).
For another assay, the system named is U251 CNS cancer cells. The assay can be described thus: NCI human tumor cell line panel growth inhibition. It is filed as cell-based.
For assay [9], the system named is COLO-205 colon cancer cells. The assay can be described thus: NCI human tumor cell line panel growth inhibition. The following applies: Homo sapiens; COLO-205, colon cancer; read-out: Log10 GI50 (converted). It is filed as cell-based.
Assay [10] relates to RXF-393 renal cancer cells. Description: NCI human tumor cell line panel growth inhibition. It is filed as cell-based. To be noted: Homo sapiens, read-out: Log10 GI50 (converted).
Assay [11] concerns HCC-2998 colon cancer cells. Description: NCI human tumor cell line panel growth inhibition. The following applies: Homo sapiens, read-out: Log10 GI50 (converted). It is filed as cell-based.
Assay [12] concerns RXF-631 renal cancer cells. The assay can be described thus: NCI human tumor cell line panel growth inhibition. It is filed as cell-based.
Assay [13] deals with NCI-H460 lung cancer cells. Description: NCI human tumor cell line panel growth inhibition. It is filed as cell-based.
For assay [14], the system named is LXPL-529 lung cancer cells. Description: NCI human tumor cell line panel growth inhibition. It is filed as cell-based.
Assay [15] deals with NCI-H23 lung cancer cells. The assay can be described thus: NCI human tumor cell line panel growth inhibition. It is filed as cell-based. The following applies: read-out: Log10 GI50 (converted).
The test system of another assay is HOP-18 lung cancer cells. The assay can be described thus: NCI human tumor cell line panel growth inhibition. The following applies: Homo sapiens, read-out: Log10 GI50 (converted). It is filed as cell-based.
Assay [16] concerns IGROV-1 ovarian cancer cells. Description: NCI human tumor cell line panel growth inhibition. It is filed as cell-based.
For assay [17], the system named is CAKI-1 renal cancer cells. Description: NCI human tumor cell line panel growth inhibition. It is filed as cell-based. To be noted: CAKI-1, renal cancer.
In another assay the test system is SF-295 CNS cancer cells. The assay can be described thus: NCI human tumor cell line panel growth inhibition. It is filed as cell-based. To be noted: read-out: Log10 GI50 (converted).
In the next assay the test system is TK-10 renal cancer cells. The assay can be described thus: NCI human tumor cell line panel growth inhibition. It is filed as cell-based.
A further assay relates to SNB-75 CNS cancer cells. Description: NCI human tumor cell line panel growth inhibition. It is filed as cell-based.
Setting [18] is: Homo sapiens, read-out: Log10 GI50 (converted).

Structures are written as SMILES. In brackets after ≈: the same amount, converted by molar mass. Where only a bound is given, the exact number is not on record here.

The values that follow come from patent US5741811A, “Polythiophene anti-tumor agents” (Purdue Research Foundation, priority 1996, dated 1998).

By GI50 is commonly meant the concentration giving 50% growth inhibition.

`OCc1ccc(-c2ccc(-c3cccs3)s2)s1` [compound 637388]: the concentration for 50% growth inhibition (GI50) in [1] was determined as 0.02 µg/mL (≈ 0.0718 µM); in assay [2], 3 µg/mL (≈ 10.8 µM).
The like results for `O=Cc1ccc(-c2ccc(-c3cccs3)s2)s1` [compound 637393] were, in that order, 0.03 µg/mL (≈ 0.109 µM) and 0.2 µg/mL (≈ 0.724 µM).
In the same order, the values of `O=Cc1ccc(-c2ccc(-c3ccc(C=O)s3)s2)s1` [compound 637394] are 0.01 µg/mL (≈ 0.0328 µM) and 0.2 µg/mL (≈ 0.657 µM).
In the same order, the values of `O=Cc1ccc(-c2ccc(CO)s2)s1` [compound 647073] are 0.05 µg/mL (≈ 0.223 µM) and 0.08 µg/mL (≈ 0.357 µM).
For the compound `OCc1ccc(-c2ccc(CO)s2)s1` [compound 647452], the GI50 in [1] is 0.03 µg/mL (≈ 0.133 µM); in [2], 0.6 µg/mL (≈ 2.65 µM).
As for `O=Cc1ccc(-c2ccc(-c3ccc(CO)s3)s2)s1` [compound 647455], the “Tumor Volume” value in [3] (week 1) worked out at 0.0 mm^3; in [3] (week 1.5), 1.4 mm^3; in assay [3] (week 2), 5.2 mm^3; in [3] (week 3), 5.8 mm^3; in assay [3] (week 4) it was 5.6 mm^3; in assay [3] (week 5) it was 5.4 mm^3. For the same compound, the “Tumor Volume” value in assay [3] (week 6) turned out to be 10.6 mm^3; in [3] (week 8.6) it was 18.8 mm^3. Moreover, the “Number of Animals with Tumor” value in assay [3] (week 1) stood at 0; in assay [3] (week 1.5) it was 1; in [3] (week 2), 3; in assay [3] (week 3), 4; in assay [3] (week 4), 4; in assay [3] (week 5), 4. In addition, the “Number of Animals with Tumor” value in assay [3] (week 6) and in [3] (week 8.6) was 5 each time. The Slope in assay [3] (week 3) came to 2.16 mm^3 /week; in assay [3] (week 4) it was 1.75 mm^3 /week; in [3] (week 5), 1.34 mm^3 /week; in assay [3] (week 6), 1.60 mm^3 /week; in [3] (week 8.6) it was 2.07 mm^3 /week. In addition, the “Tumor Growth Inhibition” value in [3] (week 3) stood at 57%; in [3] (week 4), 60%; in [3] (week 5), 61%; in [3] (week 6) it was 45%; in assay [3] (week 8.6), 21%. In addition, the GI50 in [1] worked out at 0.002 µg/mL (≈ 0.00653 µM); in assay [2] it was 0.1 µg/mL (≈ 0.326 µM).
Take `NCc1ccc(-c2ccc(-c3cccs3)s2)s1` [compound 652866]: the results for the GI50 in [1] and in assay [2] were 0.001 µg/mL (≈ 0.0036 µM) and 0.01 µg/mL (≈ 0.036 µM), respectively.
For `NCc1ccc(-c2ccc(-c3ccc(CO)s3)s2)s1` [compound 656898], the GI50 came out at 0.02 µg/mL (≈ 0.065 µM) in assay [1] and 3 µg/mL (≈ 9.76 µM) in assay [2].
Take `NCc1ccc(-c2ccc(-c3ccc(CN)s3)s2)s1` [compound 658110]: the GI50 in [1] stood at 4 µg/mL (≈ 13.1 µM); in [2] it was 10 µg/mL (≈ 32.6 µM).
`OCc1ccc(-c2ccc(-c3sccc3CO)s2)s1` [compound 658875]: the GI50 in [1] came out at 0.002 µg/mL (≈ 0.00648 µM); in assay [2], 9.7 µg/mL (≈ 31.4 µM).
The like results for `O=Cc1ccc(-c2ccc(-c3sccc3CO)s2)s1` [compound 658876] were, in that order, 0.02 µg/mL (≈ 0.0653 µM) and 0.4 µg/mL (≈ 1.31 µM).
Take `O=Cc1ccc(-c2ccc(-c3sccc3C=O)s2)s1` [compound 658877]: the GI50 in assay [1] was determined as 0.03 µg/mL (≈ 0.0985 µM); in assay [2], 0.6 µg/mL (≈ 1.97 µM).
The like results for `OCc1csc(-c2ccc(-c3ccc(CO)s3)s2)c1` [compound 658878] were, in that order, 0.002 µg/mL (≈ 0.00648 µM) and 8 µg/mL (≈ 25.9 µM).
The like results for `O=Cc1ccc(-c2ccc(-c3cc(CO)cs3)s2)s1` [compound 658879] were, in that order, 0.004 µg/mL (≈ 0.0131 µM) and 6.2 µg/mL (≈ 20.2 µM).
In the same order, the values of `CC[N+](CC)(CC)Cc1ccc(-c2ccc(-c3cccs3)s2)s1` [compound 659561] are 2 µg/mL and 5 µg/mL.
In the case of `O=Cc1ccc(-c2ccc(-c3ccsc3)s2)s1` [compound 660643], the GI50 in assay [1] amounted to 0.005 µg/mL (≈ 0.0181 µM); in assay [2], 2.4 µg/mL (≈ 8.68 µM).
The like results for `OCc1ccc(-c2ccc(-c3ccsc3)s2)s1` [compound 660644] were, in that order, 0.002 µg/mL (≈ 0.00718 µM) and 3.6 µg/mL (≈ 12.9 µM).
`OCc1ccc(-c2ccc(-c3cccs3)s2)s1` [drawing 30]: the GI50 in [4] (Homo sapiens, KM-20L2, read-out: Log10 GI50 (converted)) is 245 nM; in the assay with UACC-257 melanoma cells (setting [18]) it was 102 nM; in assay [5] (setting [18]), 224 nM; with SNB-19 CNS cancer cells it was 18600 nM; in assay [6], 29500 nM; in the assay on UACC-62 melanoma cells (setting [18]) it was < 10 nM. The GI50 in the assay with A-498 renal cancer cells (Homo sapiens, A498, read-out: Log10 GI50 (converted)) was < 10 nM; in [7] (setting [18]), 117 nM; in assay [8] (setting [18]) it was 295 nM; with DLD-1 colon cancer cells, 4470 nM; with U251 CNS cancer cells (Homo sapiens, U-251, read-out: Log10 GI50 (converted)) it was 148 nM; in assay [9], 912 nM. Further, the concentration for 50% growth inhibition (GI50) was 31.6 nM in assay [10]; 36300 nM in assay [11]; 28.2 nM in assay [12] (setting [18]); 490 nM in assay [13] (setting [18]); < 10 nM in assay [14] (setting [18]); 70800 nM in assay [15]. In addition, the concentration for 50% growth inhibition (GI50) in the assay on HOP-18 lung cancer cells was 22400 nM; in [16] (setting [18]), 42.7 nM; in [17] (setting [18]), 27.5 nM; in the assay on SF-295 CNS cancer cells, 33900 nM; in the assay on TK-10 renal cancer cells (setting [18]), 105 nM.
With `O=Cc1ccc(-c2ccc(-c3ccc(C=O)s3)s2)s1` [drawing 35], the “Log10 GI50” value in assay [4] was -4.39 M; in the assay on UACC-257 melanoma cells, -5.72 M; in the assay with SNB-75 CNS cancer cells, -4.14 M; in assay [5] it was -4.68 M; in the assay on UACC-62 melanoma cells, -6.46 M; in the assay with A-498 renal cancer cells it was -5.93 M. For the same compound, the “Log10 GI50” value is reported as -5.76 M in [7]; -4.74 M in assay [8]; -6.09 M in the assay on U251 CNS cancer cells; -4.03 M in [12]; -5.62 M in assay [13]; -5.95 M in assay [14]. Also, the entries for the “Log10 GI50” value (in assay [16]; in assay [17]; in the assay on TK-10 renal cancer cells) were -5.15 M, -5.88 M and -5.29 M, respectively.
